Assay results: US10219516B2, “Molecules having pesticidal utility, and intermediates, compositions, and processes, related thereto” (priority 2015, dated 2019)
Like-named read-outs stand apart in the source and are kept apart here.

Columns and labels:
Format in all cases: in vivo
[1] = system: Yellow Fever Mosquito (Aedes aegypti, AEDSAE); assay: Bioassay on Yellow Fever Mosquito (YFM), 96-well plate larval assay; details: for YFM (Biological Results, rating): Species YFM (Yellow Fever Mosquito); for YFM rating: Yellow Fever Mosquito, 96-well plate larval assay
In short: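 Each well was scored for mortality after 3 days at room temperature under a non-evaporative lid. Test molecules came from DMSO masters (4000 ppm stock) diluted with water/acetone 90:10 and dispensed into six replicate plates, which were then infested with roughly 1-day-old larvae in liver-powder water.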

[2] = system: Cabbage Looper (Trichoplusia ni, TRIPNI); assay: Bioassay on Cabbage Looper (CL), 128-well diet tray assay; details: Trichoplusia ni
In short: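 Second-instar larvae, one to five per well, were placed on artificial diet surface-treated with 50 μg/cm^2 test molecule applied in 90:10 acetone-water and dried, eight wells per molecule. Trays were covered, vented and held at 25° C., 14:10 light-dark for five to seven days; percent mortality per well was averaged.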

[3] = system: Green Peach Aphid (Myzus persicae, MYZUPE); assay: Bioassay on Green Peach Aphid (GPA), foliar spray on infested cabbage seedlings; details: 72 h
In short: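 Cabbage seedlings (2-3 true leaves) infested with 20-50 wingless adult and nymph aphids one day before treatment; sprayed to runoff at 200 ppm in 0.025% Tween 20 water with 20% acetone/methanol, four pots per treatment. Held three days at about 25° C; live aphids counted, % control by Abbott's correction versus solvent check.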

[4] = system: Beet Armyworm (Spodoptera exigua, LAPHEG); assay: Bioassay on Beet Armyworm (BAW), 128-well diet tray assay
In short: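 Second instar larvae were exposed to diet treated at 50 μg/cm^2 for five to seven days at 25° C.; mortality was averaged over eight wells.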

[5] = Species CL (Cabbage Looper), read-out: CL (Biological Results, rating)
[6] = foliar, Species GPA (Green Peach Aphid), read-out: GPA (Biological Results, rating)
[7] = Species BAW (Beet Armyworm), read-out: BAW (Biological Results, rating)
[8] = Cabbage Looper, 128-well diet tray assay, read-out: CL rating
[9] = Green Peach Aphid, foliar spray on cabbage seedlings, read-out: GPA rating
[10] = Beet Armyworm, 128-well diet tray assay, read-out: BAW rating

Compound | YFM (Biological Results, rating) [1] | pest or weed control at 50 µg/cm2 [2, 5] [%] | pest or weed control at 200 µg/mL [3, 6] [%] | pest or weed control at 50 µg/cm2 [4, 7] [%] | YFM rating [1] | pest or weed control at 50 µg/cm2 [2, 8] [%] | pest or weed control at 200 µg/mL [3, 9] [%] | pest or weed control at 50 µg/cm2 [4, 10] [%]
CN(C(=O)c1cc(NC(=O)[C@H]2[C@H](c3cc(Cl)c(Cl)c(Cl)c3)C2(Cl)Cl)ccc1Cl)c1ccc(F)cc1 (relative stereo) [F52, trans-2-Chloro-5-(2,2-dichloro-3-(3,4,5-trichlorophenyl)cyclopropane-1-carboxamido)-N-(4-fluorophenyl)-N-methylbenzamide] | A (80-100) | 50 to 100 | 80 to 100 | 50 to 100 | – | – | – | –
O=C(Nc1cccc(F)c1)c1cc(NC(=O)[C@H]2[C@H](c3ccc(Cl)c(Cl)c3)C2(Cl)Cl)ccc1Cl (relative stereo) [F51, trans-2-Chloro-5-(2,2-dichloro-3-(3,4-dichlorophenyl)cyclopropane-1-carboxamido)-N-(3-fluorophenyl)benzamide] | A (80-100) | 50 to 100 | 80 to 100 | 50 to 100 | – | – | – | –
CN(C(=O)c1cc(NC(=O)[C@H]2[C@H](c3cc(Cl)cc(Br)c3)C2(Cl)Cl)ccc1Cl)c1ccc(F)cc1 (relative stereo) [PF38, trans-5-(3-(3-Bromo-5-chlorophenyl)-2,2-dichlorocyclopropane-1-carboxamido)-2-chloro-N-(4-fluorophenyl)-N-methylbenzamide] | – | – | – | – | A (80-100) | 50 to 100 | 80 to 100 | 50 to 100
O=C(Nc1ccccc1Cl)c1cc(NC(=O)[C@H]2[C@H](c3cc(Cl)cc(Cl)c3)C2(Cl)Cl)ccc1Cl (relative stereo) [F38, trans-2-Chloro-N-(2-chlorophenyl)-5-(2,2-dichloro-3-(3,5-dichlorophenyl)cyclopropane-1-carboxamido)benzamide] | A (80-100) | 50 to 100 | 80 to 100 | 50 to 100 | – | – | – | –
O=C(Nc1ccc(F)cc1)c1nc(NC(=O)[C@H]2[C@H](c3cc(Cl)cc(Cl)c3)C2(Cl)Cl)ccc1Cl (relative stereo) [F131, trans-3-Chloro-6-(2,2-dichloro-3-(3,5-dichlorophenyl)cyclopropane-1-carboxamido)-N-(4-fluorophenyl)picolinamide] | A (80-100) | 50 to 100 | 0 to 80 | 50 to 100 | – | – | – | –
N#Cc1cc(F)ccc1NC(=O)c1cc(NC(=O)[C@H]2[C@H](c3cc(Cl)cc(Cl)c3)C2(Cl)Cl)ccc1Cl (relative stereo) [PF67, trans-2-Chloro-N-(2-cyano-4-fluorophenyl)-5-(2,2-dichloro-3-(3,5-dichlorophenyl)cyclopropane-1-carboxamido)benzamide] | – | – | – | – | B (More than 0-Less than 80) | 50 to 100 | 80 to 100 | 50 to 100
O=C(Nc1ccc(F)cc1)c1cc(NC(=O)[C@H]2[C@H](c3ccc(Cl)c(Cl)c3)C2(Cl)Cl)ccc1Cl (relative stereo) [F14, trans-2-Chloro-5-(2,2-dichloro-3-(3,4-dichlorophenyl)cyclopropane-1-carboxamido)-N-(4-fluorophenyl)benzamide] | A (80-100) | 50 to 100 | 80 to 100 | 50 to 100 | – | – | – | –
O=C(Nc1cccnc1F)c1cc(NC(=O)[C@H]2[C@H](c3cc(Cl)cc(Cl)c3)C2(Cl)Cl)ccc1Cl (relative stereo) [F156, trans-2-Chloro-5-(2,2-dichloro-3-(3,5-dichlorophenyl)cyclopropane-1-carboxamido)-N-(2-fluoropyridin-3-yl)benzamide] | B (More than 0-Less than 80) | 50 to 100 | 80 to 100 | 50 to 100 | – | – | – | –
